# Source: patent US11124494B2, “Aryl heterocyclic piperidinone formyl peptide 2 receptor and formyl peptide 1 receptor agonists” (Bristol-Myers Squibb Company, priority 2017, dated 2021)
# Biological target: human FPR2 receptors (Homo sapiens (Human), UniProt P25090)
# Assay: FPR2 cyclic adenosine monophosphate (cAMP) assay
# Type: cell-based
# Details: hFPR2 Assay, CHO cells overexpressing human FPR2; potency bins; read-out: hFPR2 agonist activity EC50 values
# Procedure: FPR2 and FPR1 Cyclic Adenosine Monophosphate (cAMP) Assays. A mixture of forskolin (5 μM final for FPR2 or 10 μM final for FPR1) and IBMX (200 μM final) were added to 384-well Proxiplates (Perkin-Elmer) pre-dotted with test compounds in DMSO (1% final) at final concentrations in the range of 1.7 nM to 100 μM. Chinese Hamster Ovary cells (CHO) overexpressing human FPR1 or human FPR2 receptors were cultured in F-12 (Ham's) medium supplemented with 10% qualified FBS, 250 μg/ml zeocin and 300 μg/ml hygromycin (Life Technologies). Reactions were initiated by adding 2,000 human FPR2 cells per well or 4,000 human FPR1 cells per well in Dulbecco's PBS (with calcium and magnesium) (Life Technologies) supplemented with 0.1% BSA (Perkin-Elmer). The reaction mixtures were incubated for 30 min at room temperature. The level of intracellular cAMP was determined using the HTRF HiRange cAMP assay reagent kit (Cisbio) according to manufacturer's instruction. Solutions of cryptate conjugated anti-cAMP and d2 flurorophore-labelled cAMP were made in a supplied lysis buffer separately. Upon completion of the reaction, the cells were lysed with equal volume of the d2-cAMP solution and anti-cAMP solution. After a 1-h room temperature incubation, time-resolved fluorescence intensity was measured using the Envision (Perkin-Elmer) at 400 nm excitation and dual emission at 590 nm and 665 nm. A calibration curve was constructed with an external cAMP standard at concentrations ranging from 1 μM to 0.1 pM by plotting the fluorescent intensity ratio from 665 nm emission to the intensity from the 590 nm emission against cAMP concentrations. The potency and activity of a compound to inhibit cAMP production was then determined by fitting to a 4-parametric logistic equation from a plot of cAMP level versus compound concentrations.
# Chain of human FPR2 receptors (P25090 whole entry): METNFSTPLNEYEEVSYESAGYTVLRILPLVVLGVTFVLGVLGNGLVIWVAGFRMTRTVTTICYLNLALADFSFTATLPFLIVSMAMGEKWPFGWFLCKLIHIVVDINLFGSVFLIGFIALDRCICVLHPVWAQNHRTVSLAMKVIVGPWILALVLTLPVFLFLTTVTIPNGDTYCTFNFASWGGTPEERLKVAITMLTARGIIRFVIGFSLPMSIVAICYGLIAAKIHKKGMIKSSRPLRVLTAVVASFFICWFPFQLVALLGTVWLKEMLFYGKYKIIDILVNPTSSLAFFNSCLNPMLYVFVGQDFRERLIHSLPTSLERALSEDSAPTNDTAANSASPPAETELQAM
row,SMILES,EC50 [nM]
1,"CS(=O)(=O)NCC1(c2ccc(N3CCC[C@@H](NC(=O)Nc4ccc(C(F)(F)F)nc4)C3=O)cc2)CCC1 [Example 1, (R)—N-((1-(4-(2-Oxo-3-(3-(6-(trifluoromethyl)pyridin-3-yl)ureido)piperidin-1-yl)phenyl)cyclobutyl)methyl)methanesulfonamide]",≤ 10
2,CS(=O)(=O)NCC1(c2ccc(N3CCC[C@@H](NC(=O)Nc4ccc(C(F)(F)F)nc4)C3=O)cc2F)CC1 [Example 2],≤ 10
3,O=C(Nc1ccc(C(F)(F)F)nc1)N[C@@H]1CCCN(c2ccc(C3(CO)CC3)cc2)C1=O [Example 3],100 to 1250
4,CS(=O)(=O)NCC1(c2ccc(N3CCC[C@@H](NC(=O)Nc4ccc(C(F)(F)F)cn4)C3=O)c(F)c2)CC1 [Example 4],10 to 100
5,COc1cnc(NC(=O)N[C@@H]2CCCN(c3ccc(C4(CNS(C)(=O)=O)CC4)c(F)c3)C2=O)cn1 [Example 5],≤ 10
6,COc1cnc(NC(=O)N[C@@H]2CCCN(c3ccc(C4(CNS(C)(=O)=O)CCC4)cc3)C2=O)cn1 [Example 7],≤ 10
7,Cc1cnc(NC(=O)N[C@@H]2CCCN(c3ccc(C4(CNS(C)(=O)=O)CCC4)cc3)C2=O)cn1 [Example 8],≤ 10
8,COc1cnc(NC(=O)N[C@@H]2CCCN(c3ccc(C4(CNS(C)(=O)=O)CC4)cc3)C2=O)cn1 [Example 9],≤ 10
9,COc1cnc(NC(=O)N[C@H]2CCCN(c3ccc(C4(CNS(C)(=O)=O)CCC4)cc3)C2=O)cn1 [Example 10],10 to 100
10,COc1cnc(NC(=O)N[C@H]2CCCN(c3ccc(C4(CNS(C)(=O)=O)CC4)cc3)C2=O)cn1 [Example 11],100 to 1250
11,CS(=O)(=O)NCC1(c2ccc(N3CCC[C@H](NC(=O)Nc4cnc(Cl)cn4)C3=O)cc2)CCC1 [Example 12],≤ 10
12,CS(=O)(=O)NCC1(c2ccc(N3CCC[C@@H](NC(=O)Nc4ncc(Cl)cc4Cl)C3=O)cc2)CCC1 [Example 13],10 to 100
13,CS(=O)(=O)NCC1(c2ccc(N3CCC[C@@H](NC(=O)Nc4ncc(C(F)(F)F)cc4F)C3=O)cc2)CCC1 [Example 14],≤ 10
14,CS(=O)(=O)NCC1(c2ccc(N3CCC[C@H](NC(=O)Nc4ccc(C(F)(F)F)cc4)C3=O)cc2F)CC1 [Example 15],10 to 100
15,CS(=O)(=O)NCC1(c2ccc(N3CCC[C@@H](NC(=O)Nc4ncc(C(F)(F)F)cn4)C3=O)cc2)CC1 [Example 16],10 to 100
16,CS(=O)(=O)NCC1(c2ccc(N3CCC[C@@H](NC(=O)Nc4ncc(C(F)(F)F)cc4F)C3=O)cc2F)CC1 [Example 17],10 to 100
17,CS(=O)(=O)NCC1(c2ccc(N3CCC[C@@H](NC(=O)Nc4cnc(Cl)cn4)C3=O)cc2F)CC1 [Example 19],≤ 10
18,CS(=O)(=O)NCC1(c2ccc(N3CCC[C@@H](NC(=O)Nc4ncc(Cl)cc4F)C3=O)cc2F)CC1 [Example 20],≤ 10
19,CS(=O)(=O)NCC1(c2ccc(N3CCC[C@@H](NC(=O)Nc4ccc(OC(F)F)nc4)C3=O)cc2F)CC1 [Example 21],10 to 100
20,CS(=O)(=O)NCC1(c2ccc(N3CCC[C@@H](NC(=O)Nc4ncc(Cl)cc4Cl)C3=O)cc2F)CC1 [Example 22],100 to 1250
21,CS(=O)(=O)NCC1(c2ccc(N3CCC[C@@H](NC(=O)Nc4ccc(Cl)cn4)C3=O)cc2)CC1 [Example 23],≤ 10
22,COc1ccc(NC(=O)N[C@@H]2CCCN(c3ccc(C4(CNS(C)(=O)=O)CC4)cc3)C2=O)nc1 [Example 24],≤ 10
23,Cc1cnc(NC(=O)N[C@@H]2CCCN(c3ccc(C4(CNS(C)(=O)=O)CC4)cc3)C2=O)cn1 [Example 25],≤ 10

row,SMILES,EC50 [nM]
1,CS(=O)(=O)NCC1(c2ccc(N3CCC[C@@H](NC(=O)Nc4ccc(C(F)(F)F)cn4)C3=O)cc2F)CC1 [Example 26],10 to 100
2,CS(=O)(=O)NCC1(c2ccc(N3CCC[C@@H](NC(=O)Nc4ccc(C(F)(F)F)cn4)C3=O)cc2)CCC1 [Example 28],≤ 10
3,CS(=O)(=O)NCC1(c2ccc(N3CCC[C@@H](NC(=O)Nc4ccc(C(F)(F)F)cn4)C3=O)cc2)CCCC1 [Example 29],10 to 100
4,CS(=O)(=O)NCC1(c2ccc(N3CCC[C@H](NC(=O)Nc4ccc(C(F)(F)F)nc4)C3=O)cc2)CCC1 [Example 30],100 to 1250
5,CS(=O)(=O)NCC1(c2ccc(N3CCC[C@@H](NC(=O)Nc4ccc(C(F)(F)F)nc4)C3=O)cc2)CCCC1 [Example 31],≤ 10
6,CS(=O)(=O)NCC1(c2ccc(N3CCC[C@H](NC(=O)Nc4ccc(C(F)(F)F)nc4)C3=O)cc2)CCCC1 [Example 32],100 to 1250
7,CS(=O)(=O)NCC1(c2ccc(N3CCC[C@@H](NC(=O)Nc4ccc(C(F)(F)F)nc4)C3=O)cc2)CC1 [Example 33],≤ 10
8,COc1cnc(NC(=O)N[C@@H]2CCCN(c3ccc(C4(CNS(C)(=O)=O)CC4)cc3)C2=O)c(F)c1 [Example 34],10 to 100
9,CS(=O)(=O)NCC1(c2ccc(N3CCC[C@@H](NC(=O)Nc4ncc(Cl)cc4Cl)C3=O)cc2)CC1 [Example 35],100 to 1250
10,CS(=O)(=O)NCC1(c2ccc(N3CCC[C@@H](NC(=O)Nc4ccc(OC(F)F)nc4)C3=O)cc2)CC1 [Example 36],≤ 10
11,CS(=O)(=O)NCC1(c2ccc(N3CCC[C@@H](NC(=O)Nc4cnc(C#N)cn4)C3=O)cc2)CC1 [Example 37],10 to 100
12,CS(=O)(=O)NCC1(c2ccc(N3CCC[C@@H](NC(=O)Nc4ccc(OC(F)F)nc4)C3=O)cc2)CC1 [Example 38],100 to 1250
13,CS(=O)(=O)NCC1(c2ccc(N3CCC[C@@H](NC(=O)Nc4ncc(Cl)cc4F)C3=O)cc2)CC1 [Example 39],≤ 10
14,CS(=O)(=O)NCC1(c2ccc(N3CCC[C@@H](NC(=O)Nc4ncc(C(F)(F)F)cc4F)C3=O)cc2)CC1 [Example 40],10 to 100
15,CS(=O)(=O)NCC1(c2ccc(N3CCC[C@H](NC(=O)Nc4ccc(C(F)(F)F)cc4)C3=O)cc2)CC1 [Example 43],10 to 100
16,CS(=O)(=O)NCC1(c2ccc(N3CCC[C@H](NC(=O)Nc4ccc(C(F)(F)F)nc4)C3=O)cc2)CC1 [Example 45],100 to 1250
17,CS(=O)(=O)NCC1(c2ccc(N3CCC[C@@H](NC(=O)Nc4ccc(C(F)(F)F)cn4)C3=O)cc2)CC1 [Example 46],≤ 10
18,CS(=O)(=O)NCC1(c2ccc(N3CCC[C@H](NC(=O)Nc4ccc(C(F)(F)F)cn4)C3=O)cc2)CC1 [Example 47],100 to 1250
19,N#CC1(c2ccc(N3CCC[C@H](NC(=O)Nc4ccc(C(F)(F)F)cc4)C3=O)cc2)CC1 [Example 48],100 to 1250
20,N#CC1(c2ccc(N3CCC[C@@H](NC(=O)Nc4ccc(C(F)(F)F)cc4)C3=O)cc2)CC1 [Example 49],≤ 10
21,O=C(Nc1ccc(Cl)cc1)N[C@@H]1CCCN(c2ccc(C3CCOCC3)cc2)C1=O [Example 50],≤ 10
22,"O=C(Nc1ncc(Cl)cc1F)N[C@@H]1CCCN(c2ccc(C3(CN4CCOCC4)CC3)cc2)C1=O [Example 54, (R)-1-(5-chloro-3-fluoropyridin-2-yl)-3-(1-(4-(1-(morpholinomethyl)cyclopropyl)phenyl)-2-oxopiperidin-3-yl)urea]",100 to 1250
23,"O=C(Nc1ccc(C(F)(F)F)nc1)N[C@@H]1CCCN(c2ccc(C3(CN4CCCC4)CCC3)cc2)C1=O [Example 56, (R)-1-(2-oxo-1-(4-(1-(pyrrolidin-1-ylmethyl)cyclobutyl)phenyl)piperidin-3-yl)-3-(6-(trifluoromethyl)pyridin-3-yl)urea]",100 to 1250
